From the supplement of paper PMC11451515

Test system: NOMO1
Assay: cell viability relative to DMSO control; higher = less cytotoxic
Settings: 48 h
Summary of the method: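 Three leukemia lines were tested: NOMO1 and SEM at 500 cells/well and P12-Ichikawa at 1000 cells/well. Each was adapted for at least four passages in each medium and seeded in 5 μl in 1536-well plates, and library compounds in DMSO were pin-dosed from 47 μM to 0.79 nM in 11 threefold steps. After 48 h at 37°C, CellTiter-Glo One luminescence was read. Viability is a percentage relative to DMSO wells on each plate, with cell-free wells as background.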

[1] = HPLM + 10% dialyzed FBS, 0.000781 µM
[2] = HPLM + 10% dialyzed FBS, 0.00234 µM
[3] = HPLM + 10% dialyzed FBS, 0.00702 µM
[4] = HPLM + 10% dialyzed FBS, 0.0211 µM
[5] = HPLM + 10% dialyzed FBS, 0.0632 µM
[6] = HPLM + 10% dialyzed FBS, 0.19 µM
[7] = HPLM + 10% dialyzed FBS, 0.569 µM
[8] = HPLM + 10% dialyzed FBS, 1.71 µM
[9] = HPLM + 10% dialyzed FBS, 5.12 µM
[10] = HPLM + 10% dialyzed FBS, 15.4 µM
[11] = HPLM + 10% dialyzed FBS, 46.1 µM
[12] = RPMI 5 mM glucose + 10% FBS, 0.000781 µM
[13] = RPMI 5 mM glucose + 10% FBS, 0.00234 µM
[14] = RPMI 5 mM glucose + 10% FBS, 0.00702 µM
[15] = RPMI 5 mM glucose + 10% FBS, 0.0211 µM
[16] = RPMI 5 mM glucose + 10% FBS, 0.0632 µM
[17] = RPMI 5 mM glucose + 10% FBS, 0.19 µM
[18] = RPMI 5 mM glucose + 10% FBS, 0.569 µM
[19] = RPMI 5 mM glucose + 10% FBS, 1.71 µM
[20] = RPMI 5 mM glucose + 10% FBS, 5.12 µM
[21] = RPMI 5 mM glucose + 10% FBS, 15.4 µM
[22] = RPMI 5 mM glucose + 10% FBS, 46.1 µM
[23] = RPMI 5 mM glucose + 10% dialyzed FBS, 0.000781 µM
[24] = RPMI 5 mM glucose + 10% dialyzed FBS, 0.00234 µM
[25] = RPMI 5 mM glucose + 10% dialyzed FBS, 0.00702 µM
[26] = RPMI 5 mM glucose + 10% dialyzed FBS, 0.0211 µM
[27] = RPMI 5 mM glucose + 10% dialyzed FBS, 0.0632 µM
[28] = RPMI 5 mM glucose + 10% dialyzed FBS, 0.19 µM
[29] = RPMI 5 mM glucose + 10% dialyzed FBS, 0.569 µM
[30] = RPMI 5 mM glucose + 10% dialyzed FBS, 1.71 µM
[31] = RPMI 5 mM glucose + 10% dialyzed FBS, 5.12 µM
[32] = RPMI 5 mM glucose + 10% dialyzed FBS, 15.4 µM
[33] = RPMI 5 mM glucose + 10% dialyzed FBS, 46.1 µM

Structure (SMILES) | cell viability [1] | cell viability [2] | cell viability [3] | cell viability [4] | cell viability [5] | cell viability [6] | cell viability [7] | cell viability [8] | cell viability [9] | cell viability [10] | cell viability [11] | cell viability [12] | cell viability [13] | cell viability [14] | cell viability [15] | cell viability [16] | cell viability [17] | cell viability [18] | cell viability [19] | cell viability [20] | cell viability [21] | cell viability [22] | cell viability [23] | cell viability [24] | cell viability [25] | cell viability [26] | cell viability [27] | cell viability [28] | cell viability [29] | cell viability [30] | cell viability [31] | cell viability [32] | cell viability [33]
CN1C(=O)\C(=C/C2=C1N=C(NC3CCOCC3)N=C2)OC4=C(F)C=C(F)C=C4 | 105% | 107% | 105% | 101% | 119% | 100% | 91% | 96.4% | 58.2% | 89.2% | 16.4% | 95.4% | 83.2% | 88.4% | 90.6% | 94.1% | 87.2% | 87.2% | 95.2% | 79.2% | 84% | 23.3% | 86.7% | 97.1% | 104% | 89.2% | 83.5% | 87.1% | 95.5% | 91.4% | 76.7% | 86.3% | 26.4%
COC1=CC2=C(C=C1CC3=C(F)C(=CC=C3)Cl)C(=O)\C(=C/N2[C@H](CO)C(C)C)C(O)=O | 122% | 142% | 123% | 128% | 114% | 131% | 124% | 118% | 127% | 89.6% | 27.7% | 115% | 117% | 109% | 104% | 115% | 129% | 108% | 102% | 110% | 102% | 14.7% | 110% | 118% | 138% | 130% | 131% | 129% | 123% | 118% | 123% | 115% | 24.7%
CCc1nc(C(N)=O)c(Nc2ccc(N3CCC(N4CCN(C)CC4)CC3)c(OC)c2)nc1NC1CCOCC1 |  |  |  |  |  |  |  |  |  |  |  | 99.1% | 103% | 109% | 124% | 104% | 112% | 103% | 93.7% | 64.2% | 55.8% | 43.1% | 124% | 112% | 101% | 123% | 147% | 99.9% | 77.9% | 78.7% | 57.5% | 38.1% | 33.3%
CC(C)(OCc1nn(Cc2ccccc2)c2ccccc12)C(=O)O | 101% | 99.8% | 108% | 116% | 120% | 84.4% | 108% | 114% | 88.8% | 85.2% | 99.1% | 84.4% | 89.3% | 98.8% | 96% | 93% | 92.2% | 99.9% | 94.2% | 89.8% | 96.8% | 83.4% | 96.2% | 91.5% | 93.3% | 108% | 91.6% | 106% | 102% | 83.6% | 111% | 95.4% | 97.4%
CN1CCN(c2cc(C(=O)Nc3ccc4c(c3)-c3c(c(C(N)=O)nn3-c3ccc(F)cc3)CC4)c(Cl)cn2)CC1 | 123% | 106% | 108% | 113% | 114% | 127% | 113% | 103% | 99.4% | 85.9% | 1.35% | 108% | 102% | 111% | 109% | 109% | 107% | 112% | 106% | 109% | 97.4% | 2.41% | 116% | 108% | 121% | 102% | 117% | 107% | 93.4% | 100% | 99.9% | 102% | 2.16%
O=C(O)CCc1ccc(NCc2cccc(Oc3ccccc3)c2)cc1 | 97.4% | 105% | 134% | 132% | 119% | 96.9% | 114% | 111% | 122% | 117% | 141% | 85.8% | 99.2% | 108% | 102% | 119% | 111% | 105% | 102% | 109% | 103% | 123% | 82.6% | 103% | 95.1% | 92.5% | 105% | 105% | 103% | 98.6% | 111% | 119% | 104%
COC(=O)Nc1nc2cc(Sc3ccccc3)ccc2[nH]1 |  |  |  |  |  |  |  |  |  |  |  | 114% | 122% | 124% | 113% | 120% | 107% | 115% | 111% | 22.8% | 42.9% | 36.8% | 122% | 111% | 122% | 115% | 140% | 119% | 119% | 115% | 32.6% | 35.1% | 29.7%
CNC(=O)c1cc(COc2nnc(Nc3ccc(Cl)cc3)c3ccoc23)ccn1 | 110% | 110% | 107% | 103% | 114% | 131% | 114% | 107% | 98.2% | 91.1% | 65.7% | 114% | 123% | 106% | 112% | 110% | 111% | 109% | 104% | 92.6% | 87.4% | 87.5% | 104% | 111% | 107% | 101% | 109% | 102% | 92.7% | 96.4% | 98.6% | 101% | 87.3%
CC1(C)NC(=O)N(c2ccc([N+](=O)[O-])c(C(F)(F)F)c2)C1=O | 93.3% | 91.4% | 90% | 107% | 96.2% | 96.9% | 82% | 92.8% | 90% | 90.1% | 82.3% | 92.9% | 95.5% | 90.9% | 94.6% | 92.8% | 88.7% | 90.1% | 97.8% | 86.3% | 82.2% | 76.4% | 80.9% | 87.7% | 90.8% | 86.6% | 86.2% | 82.2% | 89.3% | 85.9% | 86.5% | 77.5% | 82.1%
O=C(/C=C/c1cccnc1)NCCCCC1CCN(C(=O)c2ccccc2)CC1 | 102% | 59.8% | 33.1% | 17.4% | 13.1% | 7.89% | 6.3% | 7.27% | 9.47% | 10.6% | 6.73% | 105% | 110% | 47% | 28% | 12.9% | 9.19% | 8.33% | 8.21% | 8.16% | 8.07% | 7.6% | 110% | 75.6% | 39% | 30.7% | 16.8% | 9.73% | 7.83% | 8.77% | 7.77% | 8.34% | 6.8%
CC=CC1=C(C(=O)O)N2C(=O)[C@@H](NC(=O)[C@H](N)c3ccc(O)cc3)[C@H]2SC1.O | 80.5% | 102% | 113% | 104% | 120% | 116% | 118% | 60.7% | 33.1% | 31.3% | 23.8% | 93.7% | 109% | 113% | 116% | 112% | 125% | 118% | 28.4% | 22.2% | 18.1% | 15.1% | 106% | 104% | 96% | 104% | 117% | 113% | 109% | 89.6% | 24.8% | 23.6% | 20%
COc1cc([C@@H]2c3cc4c(cc3[C@@H](O)C3COC(=O)C32)OCO4)cc(OC)c1O (some centres undefined) | 88.8% | 100% | 101% | 37% | 94.3% | 53.1% | 37.9% | 45.9% | 30.5% | 30.3% | 28.2% | 81.3% | 95.6% | 85.7% | 17.6% | 92% | 82.7% | 20.5% | 22.1% | 19.7% | 20.3% | 19.6% | 88.1% | 95.3% | 91.5% | 32.1% | 90.8% | 73.3% | 25.7% | 26.2% | 22.9% | 23% | 22.3%
COc1ccccc1OCC(O)CN1CCN(CC(=O)Nc2c(C)cccc2C)CC1 (centres undefined) | 109% | 117% | 142% | 142% | 129% | 157% | 168% | 154% | 138% | 138% | 137% | 115% | 131% | 125% | 167% | 139% | 155% | 141% | 136% | 144% | 139% | 141% |  |  |  |  |  |  |  |  |  |  | 
CO[C@H]1C[C@H]2OC[C@@]2(OC(C)=O)[C@H]3[C@H](OC(=O)C4=CC=CC=C4)[C@]5(O)C[C@H](OC(=O)[C@H](O)[C@@H](NC(=O)OC(C)(C)C)C6=CC=CC=C6)/C(=C(/[C@@H](OC)C(=O)[C@]13C)C5(C)C)C | 75.9% | 46% | 28.5% | 25.8% | 19.6% | 19.9% | 19.3% | 18.8% | 27.7% | 19.9% | 7.15% | 68.2% | 79.6% | 86.1% | 14.6% | 10.7% | 13.3% | 11.9% | 12.6% | 14.9% | 11% | 4.22% | 64.3% | 81% | 82.7% | 19% | 14.9% | 13.8% | 13.7% | 13.7% | 17.5% | 16.8% | 7.39%
c1cc(N[C@@H]2CCNC2)nc(-c2cnc3ccc(-c4cn[nH]c4)cn23)c1 | 133% | 119% | 124% | 137% | 134% | 139% | 127% | 128% | 132% | 102% | 91.9% | 116% | 126% | 124% | 133% | 137% | 125% | 120% | 125% | 128% | 111% | 100% |  |  |  |  |  |  |  |  |  |  | 
CN(C)Cc1cccc(N/C(=C2\C(=O)Nc3cc(C(=O)N(C)C)ccc32)c2ccccc2)c1 | 99.3% | 105% | 112% | 112% | 91.1% | 118% | 110% | 97.9% | 74.8% | 58.2% | 28.8% | 100% | 105% | 101% | 105% | 103% | 107% | 95.2% | 92.4% | 84.6% | 68.5% | 55% | 95.7% | 88.9% | 95.9% | 96.4% | 107% | 99.6% | 112% | 112% | 81.2% | 73% | 61.6%
